Target: human SPR (Homo sapiens (Human), UniProt P35270)
Experiment: Evaluation Example 2: Measurement of human SPR inhibitory activity (seven concentrations, sepiapterin absorbance at 420 nm)
Type: biochemical
Details: Evaluation Example 2, seven concentrations 0.14 nM to 100 nM, 240 minutes at room temperature, read-out: IC50
Procedure, shortened: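 His-tagged full-length human SPR (1-261) was expressed in E. coli and the tag removed. Enzyme at 150 ng/mL in 100 mM Tris-HCl pH 7.5/0.01% BSA was mixed with compound (0.14–100 nM, seven points), 120 μM sepiapterin and 160 μM NADPH, both as added-solution concentrations. After 240 min at room temperature, remaining sepiapterin was read at 420 nm to give percent inhibition.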

human SPR, sequence (P35270 whole entry): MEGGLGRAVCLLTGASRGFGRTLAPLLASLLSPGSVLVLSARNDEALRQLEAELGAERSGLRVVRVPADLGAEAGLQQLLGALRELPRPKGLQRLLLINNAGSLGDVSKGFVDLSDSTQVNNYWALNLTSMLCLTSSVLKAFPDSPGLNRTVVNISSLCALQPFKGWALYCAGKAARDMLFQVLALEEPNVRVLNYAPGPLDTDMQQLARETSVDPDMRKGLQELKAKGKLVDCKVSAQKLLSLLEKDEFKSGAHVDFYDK

SMILES: CC[C@H]1COCCN1C(=O)/C=C/c1cnn2c(O)c(C(=O)NC3CC3)c(=O)n(CC(C)C)c12 [compound 544, (S,E)-N-Cyclopropyl-3-(3-(3-ethylmorpholino)-3-oxoprop-1-en-1-yl)-7-hydroxy-4-isobutyl-5-oxo-4,5-dihydropyrazolo[1,5-a]pyrimidine-6-carboxamide]
- IC50: 950 pM

SMILES: CC(C)Cn1c(=O)c(C(=O)N[C@@H](C)C(F)(F)F)c(O)n2ncc(/C=C/C(=O)N3CCOCC3)c12 [compound 545, (S,E)-7-Hydroxy-4-isobutyl-3-(3-morpholino-3-oxoprop-1-en-1-yl)-5-oxo-N-(1,1,1-trifluoropropan-2-yl)-4,5-dihydropyrazolo[1,5-a]pyrimidine-6-carboxamide]
- IC50: 660 pM

SMILES: CC(C)Cn1c(=O)c(C(=O)NC2CC2)c(O)n2ncc(/C=C/C(=O)N3CCOCC34CCC4)c12 [compound 547, (E)-N-Cyclopropyl-7-hydroxy-4-isobutyl-5-oxo-3-(3-oxo-3-(8-oxa-5-azaspiro[3,5]nonan-5-yl)prop-1-en-1-yl)-4,5-dihydropyrazolo[1,5-a]pyrimidine-6-carboxamide]
- IC50: 740 pM

SMILES: COC[C@H]1CCCN1C(=O)/C=C/c1cnn2c(O)c(C(=O)NC3CC3)c(=O)n(CC(C)C)c12 [compound 548, (R,E)-N-Cyclopropyl-7-hydroxy-4-isobutyl-3-(3-(2-(methoxymethyl)pyrrolidin-1-yl)-3-oxoprop-1-en-1-yl)-5-oxo-4,5-dihydropyrazolo[1,5-a]pyrimidine-6-carboxamide]
- IC50: 790 pM

SMILES: COC[C@@H]1CCCN1C(=O)/C=C/c1cnn2c(O)c(C(=O)NC3CC3)c(=O)n(CC(C)C)c12 [compound 549, (S,E)-N-Cyclopropyl-7-hydroxy-4-isobutyl-3-(3-(2-(methoxymethyl)pyrrolidine-1-yl)-3-oxoprop-1-en-1-yl)-5-oxo-4,5-dihydropyrazolo[1,5-a]pyrimidine-6-carboxamide]
- IC50: 730 pM

SMILES: CC(C)Cn1c(=O)c(C(=O)NCC(F)(F)F)c(O)n2ncc(/C=C/C(=O)N3CCOCC3)c12 [compound 552, (E)-7-Hydroxy-4-isobutyl-3-(3-morpholino-3-oxoprop-1-en-1-yl)-5-oxo-N-(2,2,2-trifluoroethyl)-4,5-dihydropyrazolo[1,5-a]pyrimidine-6-carboxamide]
- IC50: 880 pM

SMILES: CC(C)Cn1c(=O)c(C(=O)NC2CC2)c(O)n2ncc(/C=C/C(=O)N3CCC3)c12 [compound 553, (E)-3-(3-(Azetidin-1-yl)-3-oxoprop-1-en-1-yl)-N-cyclopropyl-7-hydroxy-4-isobutyl-5-oxo-4,5-dihydropyrazolo[1,5-a]pyrimidine-6-carboxamide]
- IC50: 990 pM

SMILES: CC(C)Cn1c(=O)c(C(=O)NC2CC2)c(O)n2ncc(/C=C/C(=O)N3CC(F)C3)c12 [compound 554, (E)-N-Cyclopropyl-3-(3-(3-fluoroazetidin-1-yl)-3-oxoprop-1-en-1-yl)-7-hydroxy-4-isobutyl-5-oxo-4,5-dihydropyrazolo[1,5-a]pyrimidine-6-carboxamide]
- IC50: 770 pM

SMILES: CC(C)Cn1c(=O)c(C(=O)NC2CC2)c(O)n2ncc(/C=C/C(=O)N3CC(F)(F)C3)c12 [compound 555, (E)-N-Cyclopropyl-3-(3-(3,3-difluoroazetidin-1-yl)-3-oxoprop-1-en-1-yl)-7-hydroxy-4-isobutyl-5-oxo-4,5-dihydropyrazolo[1,5-a]pyrimidine-6-carboxamide]
- IC50: 820 pM

SMILES: CC(C)Cn1c(=O)c(C(=O)NC2CC2)c(O)n2ncc(/C=C/C(=O)N3[C@H](C)COC[C@H]3C)c12 [compound 556, N-Cyclopropyl-3-((E)-3-((3R,5R)-3,5-dimethylmorpholino)-3-oxoprop-1-en-1-yl)-7-hydroxy-4-isobutyl-5-oxo-4,5-dihydropyrazolo[1,5-a]pyrimidine-6-carboxamide]
- IC50: 620 pM

SMILES: CC(C)Cn1c(=O)c(C(=O)NC2CC2)c(O)n2ncc(/C=C/C(=O)N3[C@H](C)COC[C@@H]3C)c12 [compound 557, N-Cyclopropyl-3-((E)-3-(cis-3,5-dimethylmorpholino)-3-oxoprop-1-en-1-yl)-7-hydroxy-4-isobutyl-5-oxo-4,5-dihydropyrazolo[1,5-a]pyrimidine-6-carboxamide]
- IC50: 810 pM

SMILES: COC1CN(C(=O)/C=C/c2cnn3c(O)c(C(=O)NC4CC4)c(=O)n(CC(C)C)c23)C1 [compound 558, (E)-N-Cyclopropyl-7-hydroxy-4-isobutyl-3-(3-(3-methoxyazetidin-1-yl)-3-oxoprop-1-en-1-yl)-5-oxo-4,5-dihydropyrazolo[1,5-a]pyrimidine-6-carboxamide]
- IC50: 1140 pM

SMILES: CC(C)Cn1c(=O)c(C(=O)NC2CC2)c(O)n2ncc(/C=C/C(=O)N3CCC4(CCOCC4)C3)c12 [compound 559, (E)-N-Cyclopropyl-7-hydroxy-4-isobutyl-5-oxo-3-(3-oxo-3-(8-oxa-2-azaspiro[4.5]decan-2-yl)prop-1-en-1-yl)-4,5-dihydropyrazolo[1,5-a]pyrimidine-6-carboxamide]
- IC50: 1000 pM

SMILES: CC[C@@H]1CCCN1C(=O)/C=C/c1cnn2c(O)c(C(=O)NC3CC3)c(=O)n(CC(C)C)c12 [compound 562, (R,E)-N-Cyclopropyl-3-(3-(2-ethylpyrrolidin-1-yl)-3-oxoprop-1-en-1-yl)-7-hydroxy-4-isobutyl-5-oxo-4,5-dihydropyrazolo[1,5-a]pyrimidine-6-carboxamide]
- IC50: 1310 pM

SMILES: Cc1nn2c(O)c(C(=O)NC3CC3)c(=O)n(CC(C)C)c2c1/C=C/C(=O)N1CCOCC1 [compound 563, (E)-N-Cyclopropyl-7-hydroxy-4-isobutyl-2-methyl-3-(3-morpholino-3-oxoprop-1-en-1-yl)-5-oxo-4,5-dihydropyrazolo[1,5-a]pyrimidine-6-carboxamide]
- IC50: 700 pM

SMILES: Cc1nn2c(O)c(C(=O)NC3CC3)c(=O)n(CC(C)C)c2c1/C=C/C(=O)N1CCCC1 [compound 564, (E)-N-Cyclopropyl-7-hydroxy-4-isobutyl-2-methyl-5-oxo-3-(3-oxo-3-(pyrrolidin-1-yl)prop-1-en-1-yl)-4,5-dihydropyrazolo[1,5-a]pyrimidine-6-carboxamide]
- IC50: 950 pM

SMILES: Cc1nn2c(O)c(C(=O)NC3CC3)c(=O)n(CC(C)C)c2c1/C=C/C(=O)N1CCC(F)(F)C1 [compound 565, (E)-N-Cyclopropyl-3-(3-(3,3-difluoropyrrolidin-1-yl)-3-oxoprop-1-en-1-yl)-7-hydroxy-4-isobutyl-2-methyl-5-oxo-4,5-dihydropyrazolo[1,5-a]pyrimidine-6-carboxamide]
- IC50: 930 pM

SMILES: Cc1nn2c(O)c(C(=O)NC3CC3)c(=O)n(CC(C)C)c2c1/C=C/C(=O)N1CC[C@H](F)C1 [compound 566, (S,E)-N-Cyclopropyl-3-(3-(3-fluoropyrrolidin-1-yl)-3-oxoprop-1-en-1-yl)-7-hydroxy-4-isobutyl-2-methyl-5-oxo-4,5-dihydropyrazolo[1,5-a]pyrimidine-6-carboxamide]
- IC50: 940 pM

SMILES: Cc1nn2c(O)c(C(=O)NC3CC3)c(=O)n(CC(C)C)c2c1/C=C/C(=O)N1[C@@H](C)COC[C@@H]1C [compound 567, N-Cyclopropyl-3-((E)-3-((3S,5S)-3,5-dimethylmorpholino)-3-oxoprop-1-en-1-yl)-7-hydroxy-4-isobutyl-2-methyl-5-oxo-4,5-dihydropyrazolo[1,5-a]pyrimidine-6-carboxamide]
- IC50: 690 pM

SMILES: Cc1nn2c(O)c(C(=O)NC3CC3)c(=O)n(CC(C)C)c2c1/C=C/C(=O)N1CCOC[C@@H]1C [compound 568, (S,E)-N-Cyclopropyl-7-hydroxy-4-isobutyl-2-methyl-3-(3-(3-methylmorpholino)-3-oxoprop-1-en-1-yl)-5-oxo-4,5-dihydropyrazolo[1,5-a]pyrimidine-6-carboxamide]
- IC50: 680 pM

SMILES: Cc1nn2c(O)c(C(=O)NC3CC3)c(=O)n(CC(C)C)c2c1/C=C/C(=O)N1CC2CCC(C1)O2 [compound 569, (E)-3-(3-(8-Oxa-3-azabicyclo[3.2.1]octan-3-yl)-3-oxoprop-1-en-1-yl)-N-cyclopropyl-7-hydroxy-4-isobutyl-2-methyl-5-oxo-4,5-dihydropyrazolo[1,5-a]pyrimidine-6-carboxamide]
- IC50: 670 pM

SMILES: Cc1nn2c(O)c(C(=O)NC3CC3)c(=O)n(CC(C)C)c2c1/C=C/C(=O)N1CCOC[C@H]1C [compound 570, (R,E)-N-Cyclopropyl-7-hydroxy-4-isobutyl-2-methyl-3-(3-(3-methylmorpholino)-3-oxoprop-1-en-1-yl)-5-oxo-4,5-dihydropyrazolo[1,5-a]pyrimidine-6-carboxamide]
- IC50: 750 pM

SMILES: Cc1nn2c(O)c(C(=O)NC3CC3)c(=O)n(CC(C)C)c2c1/C=C/C(=O)N(C)C1CC1 [compound 572, (E)-N-Cyclopropyl-3-(3-(cyclopropyl(methyl)amino)-3-oxoprop-1-en-1-yl)-7-hydroxy-4-isobutyl-2-methyl-5-oxo-4,5-dihydropyrazolo[1,5-a]pyrimidine-6-carboxamide]
- IC50: 1100 pM

SMILES: CC[C@@H]1COCCN1C(=O)/C=C/c1c(C)nn2c(O)c(C(=O)NC3CC3)c(=O)n(CC(C)C)c12 [compound 573, (R,E)-N-Cyclopropyl-3-(3-(3-ethylmorpholino)-3-oxoprop-1-en-1-yl)-7-hydroxy-4-isobutyl-2-methyl-5-oxo-4,5-dihydropyrazolo[1,5-a]pyrimidine-6-carboxamide]
- IC50: 880 pM

SMILES: Cc1nn2c(O)c(C(=O)NC3CC3)c(=O)n(CC(C)C)c2c1/C=C/C(=O)N1CCN(C)CC1 [compound 574, (E)-N-Cyclopropyl-7-hydroxy-4-isobutyl-2-methyl-3-(3-(4-methylpiperazin-1-yl)-3-oxoprop-1-en-1-yl)-5-oxo-4,5-dihydropyrazolo[1,5-a]pyrimidine-6-carboxamide]
- IC50: 790 pM

SMILES: Cc1nn2c(O)c(C(=O)NC3CC3)c(=O)n(CC3CCOCC3)c2c1/C=C/C(=O)N1CCOCC1 [compound 575, (E)-N-Cyclopropyl-7-hydroxy-2-methyl-3-(3-morpholino-3-oxoprop-1-en-1-yl)-5-oxo-4-((tetrahydro-2H-pyran-4-yl)methyl)-4,5-dihydropyrazolo[1,5-a]pyrimidine-6-carboxamide]
- IC50: 810 pM
